Each block holds one molecule with its values, some of them ahead of it.
What was measured:
[1] = Acute toxicity--1 (oral, rats); type: in vivo; settings: rat, in vivo, Wistar rats, observation 2 weeks, hydrochlorides
Method: (§1) Wistar rats, five weeks of age, were fed previously for one week and then subjected to the test. All the test compounds were administered orally. The observation period was 2 weeks. The test compounds (4), (1) and (16) used were the products prepared in the above Examples 2, 1 and 8, respectively, and were all in the form of hydrochlorides.

Wistar rats = assay: Acute toxicity--1 (oral, rats); type: in vivo; settings: rats
Method: as §1

[2] = test system: indomethacin-induced ulcers on the gastric mucosa; assay: Indomethacin-induced ulcer (antiulcerogenic activity); type: in vivo, male Donryu rats; settings: Rattus norvegicus, 7 h; indomethacin 15 mg/kg s.c.; test compound 300 mg/kg oral, 10 minutes prior; hydrochlorides except one quaternary ammonium salt; read-out: Prevention ratio
Method: After fasting for 24 hours, male Donryu rats weighing 210 to 230 grams were administered subcutaneously with indomethacin suspended in 1% aqueous solution of carboxymethylcellulose at a dosage level of 15 mg/kg. Seven hours later, the animals were sacrificed by ether inhalation. The rat stomach was cut open and the indomethacin-induced ulcers appearing on the gastric mucosa were measured for their length in mm. The total length of ulcers per animal was designated as the ulcer index. The farnesylacetic acid ester derivatives (test compounds) prepared by any of the synthetic procedures described above and geranyl farnesylacetate as a control were orally administered 10 minutes prior to the indomethacin administration. The antiulcerogenic activity was evaluated in terms of the prevention ratio, i.e. the quotient of the difference in ulcer index between the test compound group and the control group divided by the ulcer index for the control group. The numbers in the test compound column are those previously assigned to the exemplary compounds of the present invention each represented by a structural formula, and the example numbers are the numbers of examples wherein preparation of the corresponding compounds is described. The test compounds were all hydrochlorides except for one quaternary ammonium salt.

[3] = test system: stress ulcer on the gastric gland; assay: Stress ulcer (water immersion restraint); type: in vivo, male Donryu rats; settings: 300 mg/kg oral, 10 minutes before immersion; 23° C. water, seven hours; hydrochlorides
Method: Male Donryu rats weighing 240-260 grams were immobilized in wire cages (cf. Japanese Journal of Pharmacology, 18, 9-18 (1968)) and placed under stress by immersing them in water at 23° C. to the level of the breast. Seven hours later, the animals were taken up from the water tank and immediately sacrificed by blowing and the stomach was excised. The stomach was inflated with 1% formalin and then cut open and the ulcer on the gastric gland were measured for length in mm. The total ulcer length per animal was designated as the ulcer index. In the above-mentioned test, the compounds (hydrochlorides) (test compounds (1) and (4)) prepared by the procedure of Examples 1 and 2, respectively and geranyl farnesylacetate were administered orally to the rats 10 minutes before the immersion. In the Table, the prevention ratio has the same meaning as defined for the indomethacin-induced ulcer in Example 16.

[4] = Acute toxicity--2 (oral, mice); type: in vivo; settings: mouse, in vivo, ddY mice, observation one week, hydrochlorides
Method: (§2) Five-week-old ddY mice were fed previously for one week and then subjected to the test. All the test compounds were administered orally and the observation period was one week. The test compounds (23), (7) and (13) used were the products of the above Example 5, 10 and 4, respectively and were all in the form of hydrochlorides (the product of Example 10 was converted into the hydrochloride by a conventional method).

ddY mice = assay: Acute toxicity--2 (oral, mice); type: in vivo; settings: mice
Method: as §2

[5] = Aqueous solution of hydrochloride; type: physicochemical; settings: in water
Method: Using the lower alkyl esters of farnesylacetic acids shown in Table 1 and the amino alcohols also shown in Table 1, ester exchange reaction was carried out by the procedure of Example 1, to prepare a variety of amine-nitrogen-containing farnesylacetic acid esters and hydrochlorides thereof. In the chemical formula appearing in the table, P stands for a prenyl group, G a geranyl group and F a farnesyl group.

rats = settings: cited from earlier work
ulcers = settings: known compounds, prior art; cited from earlier work
mice = settings: cited from earlier work

Structure (SMILES): CCN(CC)CCOC(=O)CCC=C(C)CCC=C(C)CCC=C(C)C [(1), 2-diethylaminoethyl farnesylacetate]
- LD50 at 336 h [1]: > 5400 mg/kg
- Number of dead animals/number of animals used (Wistar rats; dose 4.1 g/kg): 0/5
- Number of dead animals/number of animals used (Wistar rats; dose 5.4 g/kg): 0/5
- inhibition in vivo at 300 mg/kg [2]: 64.1%
- Prevention ratio [3]: 42.1%

Structure (SMILES): CC[N+](CC)(CC)CCOC(=O)CCC=C(C)CCC=C(C)CCC=C(C)C [(2), farnesylacetoxyethyltriethylammonium bromide]
- inhibition in vivo at 300 mg/kg [2]: 68.8%

Structure (SMILES): CC(C)=CCCC(C)=CCCC(C)=CCCC(=O)OCCCN(C)C [(4), 3-Dimethylaminopropyl farnesylacetate]
- LD50 at 336 h [1]: > 4000 mg/kg
- Number of dead animals/number of animals used (Wistar rats; dose 3 g/kg): 0/5
- Number of dead animals/number of animals used (Wistar rats; dose 4 g/kg): 0/5
- inhibition in vivo at 300 mg/kg [2]: 65.8%
- Prevention ratio [3]: 40.1%

Structure (SMILES): CC(C)=CCCC(C)=CCCC(C)=CCCC(=O)OC(C)(C)CN(C)C [(7), 1,1-dimethyl-2-dimethylaminoethyl farnesylacetate]
- LD50 at 168 h [4]: 8400 mg/kg
- Number of dead animals/number of animals used (ddY mice; dose 6 g/kg): 0/4
- Number of dead animals/number of animals used (ddY mice; dose 8 g/kg): 1/3
- Number of dead animals/number of animals used (ddY mice; dose 10 g/kg): 3/3
- inhibition in vivo at 300 mg/kg [2]: 91.7%

Structure (SMILES): CC(C)=CCCC(C)=CCCC(C)=CCCC(=O)OCCN(CC=C(C)CCC=C(C)C)CC=C(C)CCC=C(C)C [(13)]
- Appearance of aqueous solution of hydrochloride (water solubility) [5]: Insoluble
- LD50 at 168 h [4]: 7000 mg/kg
- Number of dead animals/number of animals used (ddY mice; dose 1 g/kg): 0/3
- Number of dead animals/number of animals used (ddY mice; dose 2 g/kg): 1/3
- Number of dead animals/number of animals used (ddY mice; dose 6 g/kg): 2/3
- Number of dead animals/number of animals used (ddY mice; dose 10 g/kg): 2/3
- Number of dead animals/number of animals used (ddY mice; dose 20 g/kg): 3/3
- inhibition in vivo at 300 mg/kg [2]: 81.3%

- Appearance of aqueous solution of hydrochloride (water solubility) [5]: Insoluble
Structure (SMILES): CCN(CCOC(=O)CCC=C(C)CCC=C(C)CCC=C(C)C)c1ccccc1 [(14)]
- inhibition in vivo at 300 mg/kg [2]: 70.2%

Structure (SMILES): CC(C)=CCCC(C)=CCCC(C)=CCC(Cc1ccccc1)C(=O)OCCN(C)C (stereo not shown) [(16)]
- LD50 at 336 h [1]: > 15000 mg/kg
- Number of dead animals/number of animals used (Wistar rats; dose 5 g/kg): 0/5
- Number of dead animals/number of animals used (Wistar rats; dose 10 g/kg): 1/5
- Number of dead animals/number of animals used (Wistar rats; dose 15 g/kg): 1/5
- inhibition in vivo at 300 mg/kg [2]: 84.5%

Structure (SMILES): CC(C)=CCCC(C)=CCCC(C)=CCCC(=O)OCCN1CCN(CCO)CC1 [(23)]
- LD50 at 168 h [4]: 4000 mg/kg
- Number of dead animals/number of animals used (ddY mice; dose 1.3 g/kg): 0/3
- Number of dead animals/number of animals used (ddY mice; dose 4.0 g/kg): 2/4
- Number of dead animals/number of animals used (ddY mice; dose 6.6 g/kg): 3/3
- inhibition in vivo at 300 mg/kg [2]: 93.2%

Structure (SMILES): CCN1CCC(OC(=O)CCC=C(C)CCC=C(C)CCC=C(C)C)CC1 [(24), N-ethyl-4-farnesylacetoxy-piperidine]
- inhibition in vivo at 300 mg/kg [2]: 76.6%

Structure (SMILES): CC(C)=CCCC(C)=CCCC(C)=CCCC(=O)OCC1CCCCN1C (stereo not shown) [(26)]
- inhibition in vivo at 300 mg/kg [2]: 47.9%

Structure (SMILES): CC(C)=CCCC(C)=CCCC(C)=CCCC(=O)OCC=C(C)CCC=C(C)C [Geranyl farnesylacetate, 3,7-dimethyl-2,6-octadienyl 5,9,13-trimethyl-4,8,12-tetradecatrienoate]
- LD50 (rats): more than 8 g/kg
- antiulcer / antiulcerogenic activity (in words) (ulcers): high antiulcerogenic activity
- LD50 (mice): more than 8 g/kg
- inhibition in vivo at 300 mg/kg [2]: 6.1%
- Prevention ratio [3]: 32.0%
